Data published in ChEMBL document CHEMBL3885861, “Open TG-GATES”.

Species on record: Rattus norvegicus
Assay: Open TG-GATES - Regimen: Single
Format: toxicity, organism-based, Sprague-Dawley
Set-up: regimen Single, gender Male, age 6 weeks
Conditions: in vivo, po, 0 mg/kg, route gavage, dose level Control; for APTT / Bas / Eos / Fbg / Hb / Ht / Lym / MCH / MCHC / MCV / Mono / Neu / PT / Plat / RBC / Ret / WBC: tissue Blood; for KIDNEY_L / KIDNEY_R / KIDNEY_TOTAL: tissue Kidney; for LIVER: tissue Liver; for A/G / ALP / ALT / AST / BUN / CRE / Ca / Cl / DBIL / GLC / IP / K / LDH / Na / PL / RALB / TBIL / TC / TG / TP / gamma-GTP: tissue Plasma

## COC1=CC(=O)C[C@@H](C)[C@]12Oc1c(Cl)c(OC)cc(OC)c1C2=O [GRISEOFULVIN]
3 h
  TERMINAL_BW: 211.3 g
  APTT: 21.6 s
  Bas: 0%
  Eos: 0.4%
  Fbg: 224.4 mg/dL
  Hb: 13.4 g/dL
  Ht: 39.4%
  Lym: 76%
  MCH: 21.7 pg
  MCHC: 34.1%
  MCV: 63.5 fL
  Mono: 3%
  Neu: 19.6%
  PT: 12.9 s
  Plat: 119.6 x10_4/uL
  RBC: 620.8 x10_4/ul
  Ret: 7.4%
  WBC: 103.5 x10_2/uL
  KIDNEY_L: 1 g
  KIDNEY_R: 1 g
  KIDNEY_TOTAL: 1.9 g
  LIVER: 9.8 g
  A/G: 1.9
  ALP: 1043.6 IU/L
  ALT: 45.2 IU/L
  AST: 71 IU/L
  BUN: 10.8 mg/dL
  CRE: 0.3 mg/dL
  Ca: 10.8 mg/dL
  Cl: 104.4 meq/L
  DBIL: 0.2 mg/dL
  GLC: 195.4 mg/dL
  IP: 9.3 mg/dL
  K: 4 meq/L
  LDH: 129.8 IU/L
  Na: 141.4 meq/L
  PL: 167.6 mg/dL
  RALB: 3.5 g/dL
  TBIL: 0.2 mg/dL
  TC: 85.8 mg/dL
  TG: 97.4 mg/dL
  TP: 5.4 g/dL
  gamma-GTP: 1.4 IU/L
6 h
  TERMINAL_BW: 210.2 g
  APTT: 18.8 s
  Bas: 0%
  Eos: 0.8%
  Fbg: 231.8 mg/dL
  Hb: 13.8 g/dL
  Ht: 41.1%
  Lym: 79.4%
  MCH: 20.9 pg
  MCHC: 33.6%
  MCV: 62.1 fL
  Mono: 3.2%
  Neu: 16%
  PT: 12.7 s
  Plat: 132.8 x10_4/uL
  RBC: 662.4 x10_4/ul
  Ret: 7.1%
  WBC: 107.8 x10_2/uL
  KIDNEY_L: 1 g
  KIDNEY_R: 1 g
  KIDNEY_TOTAL: 1.9 g
  LIVER: 9 g
  A/G: 1.7
  ALP: 1097.4 IU/L
  ALT: 34.6 IU/L
  AST: 67 IU/L
  BUN: 8.6 mg/dL
  CRE: 0.3 mg/dL
  Ca: 10.7 mg/dL
  Cl: 103.4 meq/L
  DBIL: 0.098 mg/dL
  GLC: 209.6 mg/dL
  IP: 10 mg/dL
  K: 3.9 meq/L
  LDH: 157.4 IU/L
  Na: 141.4 meq/L
  PL: 138.8 mg/dL
  RALB: 3.4 g/dL
  TBIL: 0.2 mg/dL
  TC: 73.4 mg/dL
  TG: 63.2 mg/dL
  TP: 5.4 g/dL
  gamma-GTP: 1.2 IU/L
9 h
  TERMINAL_BW: 209.9 g
  APTT: 18.2 s
  Bas: 0%
  Eos: 1%
  Fbg: 226 mg/dL
  Hb: 13.5 g/dL
  Ht: 39.7%
  Lym: 72.6%
  MCH: 21.4 pg
  MCHC: 33.9%
  MCV: 63.1 fL
  Mono: 2.4%
  Neu: 23.8%
  PT: 12.9 s
  Plat: 117.6 x10_4/uL
  RBC: 628.8 x10_4/ul
  Ret: 7.4%
  WBC: 73.2 x10_2/uL
  KIDNEY_L: 0.9 g
  KIDNEY_R: 0.9 g
  KIDNEY_TOTAL: 1.9 g
  LIVER: 8.3 g
  A/G: 1.7
  ALP: 1130.6 IU/L
  ALT: 32.4 IU/L
  AST: 59.8 IU/L
  BUN: 11 mg/dL
  CRE: 0.4 mg/dL
  Ca: 10.4 mg/dL
  Cl: 103.6 meq/L
  DBIL: 0.078 mg/dL
  GLC: 206 mg/dL
  IP: 10.1 mg/dL
  K: 4 meq/L
  LDH: 100.8 IU/L
  Na: 141.8 meq/L
  PL: 148.2 mg/dL
  RALB: 3.5 g/dL
  TBIL: 0.1 mg/dL
  TC: 79.8 mg/dL
  TG: 41.2 mg/dL
  TP: 5.5 g/dL
  gamma-GTP: 1.2 IU/L
24 h
  TERMINAL_BW: 224 g
  APTT: 18.9 s
  Bas: 0%
  Eos: 1%
  Fbg: 214.4 mg/dL
  Hb: 13 g/dL
  Ht: 39.3%
  Lym: 79.2%
  MCH: 21.6 pg
  MCHC: 33%
  MCV: 65.4 fL
  Mono: 3%
  Neu: 16.6%
  PT: 12.8 s
  Plat: 111.8 x10_4/uL
  RBC: 601.4 x10_4/ul
  Ret: 8%
  WBC: 72.9 x10_2/uL
  KIDNEY_L: 1.1 g
  KIDNEY_R: 1 g
  KIDNEY_TOTAL: 2.1 g
  LIVER: 11.1 g
  A/G: 1.7
  ALP: 884.4 IU/L
  ALT: 37.6 IU/L
  AST: 61.8 IU/L
  BUN: 16 mg/dL
  CRE: 0.4 mg/dL
  Ca: 10.9 mg/dL
  Cl: 104 meq/L
  DBIL: 0.1 mg/dL
  GLC: 208.8 mg/dL
  IP: 7.5 mg/dL
  K: 4.2 meq/L
  LDH: 148.2 IU/L
  Na: 141.4 meq/L
  PL: 149 mg/dL
  RALB: 3.4 g/dL
  TBIL: 0.2 mg/dL
  TC: 78 mg/dL
  TG: 119.8 mg/dL
  TP: 5.4 g/dL
  gamma-GTP: 1.2 IU/L
